Reference: patent US20130209403A1, “USE OF INHIBITORS OF PHOSPHOLIPASE A2 FOR THE TREATMENT OR PREVENTION OF FLAVIVIRUS INFECTION” (Ruprecht-Karls-Universitaet, priority 2010, published 2013)

Tests used:
DENV [1] = assay: Infectivity of DENV, limiting dilution titration assay
Source text: A standard limiting dilution titration assay was employed for assessing the relevance of cPLA2α activity for release of infectious DENV particles.

HCV [2] = settings: 20 μm pyrrolidine-2 vs untreated cells, FIG. 7
ApoE = settings: Mock- and Jc1-transfected cells; 20 μm pyrrolidine-2; FIG. 9
Source text: (§2) A standard ELISA protocol was employed for assessing the relevance of cPLA2α activity for release of lipoproteins carrying ApoB and ApoE.

DENV [3] = settings: Huh-7.5 cells, DV-R2A, 0, 5, 10 and 20 μM, added 42 h after transfection
Protocol: This example employs a standard bioassay for determining the effect of the cPLA2α inhibitor pyrrolidine-2 on the production of Huh-7.5 cells transfected with dengue virus RNA DV-R2A. The assay was performed according to standard protocols and materials were purchased from commercial suppliers and used according to respective manuals supplied therewith. Pyrrolidine-2 was added to the cells 42 h after transfection at the indicated final concentrations of 0, 5, 10 and 20 μM.

ApoB = settings: Mock- and Jc1-transfected cells; 20 μm pyrrolidine-2; FIG. 9
Source text: as §2

HCV [4] = settings: Jc1-transfected cells, 0, 5, 10 and 20 μM, added 42 h after transfection
Protocol: This example employs a standard bioassay for determining the effect of the cPLA2α inhibitor pyrrolidine-2 on the production of Jc1-transfected cells. The general assay set up is shown in
FIG. 2. The assay was performed according to standard protocols and materials were purchased from commercial suppliers and used according to respective manuals supplied therewith. Pyrrolidine-2 was added to the cells 42 h after transfection at […] the indicated final concentrations of 0, 5, 10 and 20 μM.

HCV [5] = settings: 20 μm pyrrolidine-2 vs untreated cells; FIG. 4B
Protocol: (§1) The assay was performed according to standard protocols and materials were purchased from commercial suppliers and used according to respective manuals supplied therewith.

[6] = 20 μm pyrrolidine-2 compared to DMSO; FIG. 5
Protocol: as §1

HCV core protein = settings: lipid droplet fractions; 20 μm pyrrolidine-2 vs untreated cells; FIG. 8A-C
Source text: Standard ELISA and Western Blot protocols were used for the analysis of lipid droplet fractions of untreated cells and cells treated with 20 μm pyrrolidine-2.

## CC(C)CN(Cc1ccccc1-c1ccccc1)[C@@H]1C[C@@H](CNC(=O)C=Cc2ccc(C=C3SC(=O)NC3=O)cc2)N(C(=O)c2ccccc2C(=O)c2ccc(F)cc2F)C1.Cl [pyrrolidine-2, N-{(2S,4R)-4-(Biphenyl-2-ylmethyl-isobutyl-amino)-1-[2-(2,4-difluorobenzoyl)-benzoyl]-pyrrolidin-2-ylmethyl}-3-[4-(2,4-dioxothiazolidin-5-ylidenemethyl)-phenyl]acrylamide, HCl]
DENV [1]; particles produced in the absence of the inhibitor, then treated with 20 μm pyrrolidine-2, FIG. 12B
  inactivation of released infectious DENV particles: does not inactivate released infectious particles
DENV [1]; transfected Huh-7.5 cells treated with 20 μm pyrrolidine-2, FIG. 12A
  reduction of the quantity of released infectious DENV particles: more than 3 orders of magnitude
HCV [2]
  lowering of intracellular virus titer: about 10 fold
  reduction of extracellular virus titers: 100 fold
ApoE
  reduction of the quantity of secreted ApoE: more than 50%
DENV [3]; FIG. 11A
  RNA replication of DENV: only slightly affected
DENV [3]; FIG. 11B
  release of infectious DENV particles: potently inhibited in a dose-dependent manner
ApoB
  reduction of the quantity of secreted ApoB: more than 50%
HCV [4]; FIG. 3A
  RNA replication of HCV: not affected
HCV [4]; FIG. 3B
  release of infectious HCV particles: potently inhibited in a dose-dependent manner
HCV [5]
  viral entry: does not influence viral entry
[6]
  cytotoxicity: did not show any cytotoxicity
HCV core protein
  quantity of lipid droplet associated core protein: reduced
